# Laboratory results taken from patent publication US5283372A, “Preparation of purified optical isomers of desflurane” (Anaquest, Inc., priority 1993, dated 1994).
# Entries after “also recorded” stand apart in the source; their conditions may differ.
# Legend:
# [1] = tested on: Male Sprague-Dawley rats (recovery of motor coordination); test: Rotarod testing in rats after recovery of righting (Rotarod Index); type: in vivo, rat (Sprague-Dawley); conditions: for Rotarod Index (ROI): ROI=(First+Second×2/3+Third×1/3)/3, average time on rod in seconds at 0, 90, 180 seconds after recovery of righting, maximum 60, rotarod 10 rpm
# Method: (§1) Male Sprague-Dawley rats were maintained as were the mice in Example 7. The animals were trained to maintain their balance for ninety seconds on a rotarod revolving at 10 rpm. The animals were allowed to rest five minutes and again trained to remain on the rotating rotarod for ninety seconds.
# (§2) The rats were individually placed into containers which had been purged with 100% oxygen for one minute, and which contained a known concentration of racemic desflurane, or its positive isomer or negative isomer which had been previously determined to be equal to the EC100. Five rats were utilized for each anesthetic.
# Following recovery of righting, the animals were placed on the rotarod 0, 90, and 180 seconds thereafter and the length of time they were able to remain on the rod was recorded in each instance. Animals that remained on the rod for a full ninety seconds were not subsequently tested. The durations of maintaining balance were noted and averaged, and the number of animals meeting the ninety second criterion were recorded at each time interval.
# A Rotarod Index (ROI) was then calculated according to the following formula.
# ROI=(First+Second×2/3+Third×1/3)/3 where First, Second and Third are the average time on the rod in seconds for the respective time intervals. Animals remaining on the rod for the full ninety seconds during either the interval beginning at zero time or ninety seconds were scored with ninety seconds for all subsequent intervals. Therefore, the maximum ROI attainable was […]. The ROI value measures the recovery of motor coordination following drug-induced LOR.
# [2] = tested on: Male Swiss-Webster mice (loss of righting); test: Loss of righting (LOR) in mice: potency, onset and recovery of inhaled anesthetic; type: in vivo, mouse (Swiss-Webster); conditions: mouse; for Recovery (mean time to ambulation) / Onset (mean time to LOR): at the EC50 concentration; for Onset (mean time to LOR): six animals; for EC50 (loss of righting): inhalation in 1900 ml container flushed with 100% oxygen, LOR within two minutes and supine for thirty seconds, * significant at P<0.05
# Method: Male Swiss-Webster mice, about 22-25 g, were allowed free access to food and water and housed ten to a cage in a temperature (22.2°) and humidity (50%) controlled vivarium with a twelve hour light-dark cycle.
# The test anesthetic was pipetted into a 1900 ml container previously flushed for one minute with 100% oxygen. The container was sealed, rotated to insure complete evaporation of test compound and allowed to stand for five minutes. The approximate concentration of the anesthetic was calculated. Six animals were tested at each concentration of racemate and its purified optical isomers. The animals were placed in the container in groups of three. The container was rotated periodically.
# The percentage of mice to lose their righting ability within two minutes and remain supine for thirty seconds was noted. Loss of righting (LOR) at four concentrations, including EC0 and EC100, were used to determine the EC50. Subsequently, onset (defined as the mean time for six animals to LOR) and recovery (defined as the mean time to ambulation) were determined at the EC50 concentration. Potency (defined by the dose-response curve) of each compound was compared using a parallel line analysis. Onset and recovery means were compared using a Student's T-Test P<0.05. The results are reported in Table I. In the Table, "S.D." is standard deviation, "C.L." is confidence level and "EC50 " is the effective concentration in one half of the animals tested.
# [3] = tested on: Male Sprague-Dawley rats (loss of righting); test: Loss of righting (LOR) in rats: onset and recovery at EC100; type: in vivo, rat (Sprague-Dawley); conditions: rat; for Recovery (of righting): EC100 concentration, removed five minutes after LOR; for Onset of LOR: at EC100 concentration, five rats per anesthetic
# Method: as §1, §2
# The onset of LOR was recorded for each animal. The animals remained in the container for five minutes following LOR, and were then removed. Recovery was determined, and the mean calculated.
# Onset and recovery were compared across anesthetics using a Student's T Test.
Structure (SMILES),Rotarod Index (ROI) ([1]; rat),Recovery (mean time to ambulation) [2] [min],Onset (mean time to LOR) [2] [min],EC50 (loss of righting) [2] [%],Recovery (of righting) [3] [min],Onset of LOR [3] [min],"Rotarod test / time to become ""street fit"" (in words) ([1]; comparison with racemate and negative isomer)","ROI value (in words) ([1]; rat, comparison of isomers)","Potency (in words) ([2]; highly purified positive isomer, comparison with negative isomer or racemate, listed as positive isomer of desflurane)",Recovery time (in words) ([3]; comparison of isomers)
"FC(F)OC(F)C(F)(F)F (racemic) [Racemic Desflurane, 2-(difluoromethoxy)-1,1,1,2-tetrafluoroethane, reference compound]",32.4,0.12,1.72,4.75,1.38,1.04,–,–,–,–
"FC(F)OC(F)C(F)(F)F (single isomer, unassigned; (+)) [Positive Isomer, (+)-2-(difluoromethoxy-1,1,1,2-tetrafluoroethane]",38.6,0.31,1.44,4.1,0.88,0.92,"clearly superior in the rotarod test; also recorded: superior to the racemate and the negative isomer in terms of the time in which a patient would become ""street fit""",larger ROI value,greater potency; also recorded: improved potency,–
"FC(F)OC(F)C(F)(F)F (single isomer, unassigned; (-)) [Negative Isomer, (-)-2-(difluoromethoxy)-1,1,1,2-tetrafluoroethane]",28.8,0.25,1.05,4.6,0.31,1.05,–,–,–,faster recovery time
